# Results reported in US20250304550A1, “BROMODOMAIN AND EXTRA-TERMINAL (BET) SUBFAMILY BROMODOMAIN 1 (BD1) SELECTIVE INHIBITORS AND METHODS USING SAME” (Baylor College of Medicine, priority 2022, published 2025).
# Legend:
# BRDT-BD1 [1] = target: T1, BRDT-BD1 (Homo sapiens (Human), UniProt Q58F21); experiment: AlphaScreen bromodomain proximity assay (biotinylated JQ1 competition); format: binding; conditions: for BRDT-BD1 vs. BRDT-BD2 fold: BD1 selectivity, AlphaScreen IC50 ratio
# [2] = Metabolic stability assay in mouse liver microsomes; format: in vitro ADME; conditions: mouse, microsomes
# [3] = Metabolic stability assay in human liver microsomes; format: in vitro ADME; conditions: human, microsomes
# BRD2-BD1 = BRD2-BD1 (Homo sapiens (Human), UniProt P25440); experiment: BromoKdELECT assay; format: binding
# BRD2-BD1, sequence (P25440 74-180): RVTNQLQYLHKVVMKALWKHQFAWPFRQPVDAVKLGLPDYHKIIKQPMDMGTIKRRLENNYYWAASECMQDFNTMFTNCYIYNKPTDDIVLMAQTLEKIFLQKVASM
# BRD3-BD1 = BRD3-BD1 (Homo sapiens (Human), UniProt Q15059); experiment: BromoKdELECT assay; format: binding
# BRD3-BD1, sequence (Q15059 34-140): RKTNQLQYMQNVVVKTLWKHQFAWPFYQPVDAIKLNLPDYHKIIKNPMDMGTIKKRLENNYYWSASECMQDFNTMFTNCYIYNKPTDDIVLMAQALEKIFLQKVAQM
# BRDT-BD1 [4] = target: T1, BRDT-BD1; experiment: BromoKdELECT assay; format: binding
# BRD4-BD1 [5] = target: T2, BRD4-BD1 (Homo sapiens (Human), UniProt O60885); experiment: BromoKdELECT assay; format: binding
# NanoLuc-BET BD1 = experiment: NanoBRET target engagement intracellular BET bromodomain assay in HEK293 cells; format: cell-based, human; conditions: transiently transfected HEK293 cells
# NanoLuc-BRD4-BD2 = NanoLuc-BRD4-BD2 (Homo sapiens (Human), UniProt O60885); experiment: as above; format: cell-based; conditions: transiently transfected HEK293 cells
# NanoLuc-BRDT-BD2 = NanoLuc-BRDT-BD2 (Homo sapiens (Human), UniProt Q58F21); experiment: as above; format: cell-based; conditions: transiently transfected HEK293 cells
# [6] = tested on: MV4; 11 and MOLM-13 cells; experiment: Cell cycle analysis by flow cytometry; format: cell-based; conditions: 24 hours of treatment at the IC50
# [7] = tested on: MV4; 11 and MOLM-13 cells; experiment: Apoptosis detection (Annexin V) by flow cytometry; format: cell-based; conditions: 72 hours of treatment
# [8] = tested on: MYC and GAPDH expression in MV4; 11 and MOLM-13 cells; experiment: Quantitative RT-PCR analysis of MYC and GAPDH expression; format: cell-based; conditions: 8 hours of treatment, both cell lines
# BRDT-BD2 = BRDT-BD2 (Homo sapiens (Human), UniProt Q58F21); experiment: AlphaScreen bromodomain proximity assay (biotinylated JQ1 competition); format: binding; conditions: in Table 4 '—' = not efficient
# BRD4-BD1 [9] = target: T2, BRD4-BD1; experiment: as above; format: binding
# BRD4-BD2 = BRD4-BD2 (Homo sapiens (Human), UniProt O60885); experiment: as above; format: binding; conditions: in Table 4 '—' = not efficient
# AML cell line MV4; 11 = experiment: Cell viability testing (CellTiterGlo, 72 hours); format: cell-based; conditions: Homo sapiens, '—' = not efficient
compound,measurement,setting,value
"CNC(=O)[C@@H](CC1CCN(C(=O)Cc2ccc3[nH]c(=O)cc(C)c3c2)CC1)NC(=O)c1ccc(-c2ccc(C)cc2C)cn1 [Compound 2, (R)-5-(2,4-dimethylphenyl)-N-(3-(1-(2-(4-methyl-2-oxo-1,2-dihydroquinolin-6-yl)acetyl)piperidin-4-yl)-1-(methylamino)-1-oxopropan-2-yl)picolinamide]",IC50,BRDT-BD1 [1]; AlphaScreen,2.1 nM
same,fold more potent than (+)-JQ1 for BRDT-BD1,BRDT-BD1 [1]; AlphaScreen,22 fold
same,BRDT-BD1 vs. BRDT-BD2 fold,BRDT-BD1 [1],~5000 fold
same,metabolic stability in mouse liver microsomes (in words),[2],labile
same,half-life at 2 μM,[3],33 min
same,BRD2-BD1 selectivity over BRD2-BD2,BRD2-BD1; BromoKdELECT,420 fold
same,IC50,BRD2-BD1; printed as BRD2-BDT1,0.26 nM
same,IC50,BRD3-BD1,0.13 nM
same,BRD3-BD1 selectivity over BRD3-BD2,BRD3-BD1; BromoKdELECT,5920 fold
same,IC50,BRDT-BD1 [4],0.22 nM
same,IC50,BRD4-BD1 [5],0.29 nM
same,"inhibition of tracer binding, BD1 vs BD2 (in words)",NanoLuc-BET BD1,more potent and selective for NanoLuc-BET BD1
same,effect against BRD4-BD2 in NanoBRET (in words),NanoLuc-BRD4-BD2,no effect
same,effect against BRDT-BD2 in NanoBRET (in words),NanoLuc-BRDT-BD2,no effect
same,effect on the cell cycle (in words),[6],induced Gi arrest
same,"apoptosis, Annexin V+ cells (in words)",[7],induced
same,MYC expression (in words),[8],suppressed
same,effects on GAPDH expression (in words),[8],no/minimal effects
"CNC(=O)[C@@H](CC1CCN(C(=O)Cc2ccc3[nH]c(=O)ccc3c2)CC1)NC(=O)c1ccc(-c2ccccc2)cn1 [Compound 10, (R)-N-(1-(methylamino)-1-oxo-3-(1-(2-(2-oxo-1,2-dihydroquinolin-6-yl)acetyl)piperidin-4-yl)propan-2-yl)-5-phenylpicolinamide]",IC50,BRDT-BD1 [1]; AlphaScreen,5.4 nM
same,BRDT-BD1 vs. BRDT-BD2 fold,BRDT-BD1 [1],"3,875 fold"
same,IC50,BRDT-BD2,20900 nM
same,IC50,BRD4-BD1 [9]; AlphaScreen,7.1 nM
same,fold loss of selectivity over BRD4-BD2,BRD4-BD1 [9]; AlphaScreen,1.6 fold
same,BRD4-BD1 vs. BRD4-BD2 fold,"BRD4-BD1 [9]; BD1 selectivity, AlphaScreen IC50 ratio","2,352 fold"
same,IC50,BRD4-BD2,16700 nM
same,EC50,AML cell line MV4; 11,143 nM
